# Experimental data as given in patent US7374919B2 (GlycoZym ApS, priority 1998, dated 2008).
# No end group written: not given here.
# Legend:
# Assay type in all cases: biochemical
# β4Gal-T2 = biological target: T1, β4Gal-T2 (Homo sapiens, UniProt O60909); assay: β4Gal-T2 galactosyltransferase activity assay (soluble enzyme, media of infected Sf9 cells); conditions: for inhibition of β4Gal-T2 by high acceptor substrate concentrations: FIGS. 5A and 5B, to higher degree than bovine milk β4Gal-transferase and β4Gal-T3; for donor substrate utilisation by β4Gal-T2 (in words): with the acceptor substrates tested
# T1 construct: An expression construct designed to encode amino acid residues 31-372 of β4Gal-T2 was prepared by RT-PCR; secretion signal of vector pAcGP67 (gp67 leader; own knowledge of the vector) (N); made in house; host or cells: Sf9 (Spodoptera frugiperda) cells, baculovirus; unpurified culture supernatant
# T1 sequence (O60909 31-372): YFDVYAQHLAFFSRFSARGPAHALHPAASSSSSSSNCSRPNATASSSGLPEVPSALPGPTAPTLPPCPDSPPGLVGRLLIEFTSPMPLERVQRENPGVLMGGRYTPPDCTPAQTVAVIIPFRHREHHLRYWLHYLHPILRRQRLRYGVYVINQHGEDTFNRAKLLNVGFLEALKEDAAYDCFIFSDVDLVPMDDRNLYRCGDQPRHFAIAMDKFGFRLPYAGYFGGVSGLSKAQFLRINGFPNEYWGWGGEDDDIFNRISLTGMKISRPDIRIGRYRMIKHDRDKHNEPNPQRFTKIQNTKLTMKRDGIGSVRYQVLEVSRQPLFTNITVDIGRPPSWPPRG
# Description: (§1) The PCR product were cloned into the BamHI site of pAcGP67 (Pharmingen), and the construct sequenced to verify correct insertion and sequence. The plasmid pAcGP67-β4Gal-T2-sol was co-transfected with Baculo-Goldä DNA (Pharmingen) as described previously (Bennett et al., 1996). Recombinant Baculo-virus were obtained after two successive amplifications in Sf9 cells grown in serum-containing medium, and titres of virus were estimated by titration in 24-well plates with monitoring of enzyme activities. Controls included pAcGP67-β4Gal-T3-sol (Almeida et al., 1997) and pAcGP67-GalNAc-T3-sol (Bennett et al., 1996).
# (§2) Standard assays were performed in […] total reaction mixtures containing 25 mM Tris (pH 7.5), 10 mM MnCl2, 0.25% Triton X-100, […] UDP-[^14C]-Gal (2,300 cpm/nmol) (Amersham), and varying concentration of acceptor substrates (Sigma) (see Table I for structures). The soluble constructs were assayed with […] of culture supernatant from infected cells, whereas the full length construct was assayed with 1% Triton X-100 homogenates of washed cells. Bovine milk P1,4Gal-transferase (Sigma) was used as control.
# Reaction products were quantified by Dowex-1 chromatography. […] The transfer of Gal was evaluated after precipitation by filtration through Whatman GF/C glass fiber filters.
# Bovine milk β4Gal-T = biological target: T2, Bovine milk β4Gal-T (Bos taurus, UniProt P08037); assay: Bovine milk β4Gal-transferase activity assay (control enzyme)
# T2 construct: Purified bovine milk enzyme; purchased Sigma; host or cells: bovine milk
# T2 sequence (P08037 79-402 limits assumed): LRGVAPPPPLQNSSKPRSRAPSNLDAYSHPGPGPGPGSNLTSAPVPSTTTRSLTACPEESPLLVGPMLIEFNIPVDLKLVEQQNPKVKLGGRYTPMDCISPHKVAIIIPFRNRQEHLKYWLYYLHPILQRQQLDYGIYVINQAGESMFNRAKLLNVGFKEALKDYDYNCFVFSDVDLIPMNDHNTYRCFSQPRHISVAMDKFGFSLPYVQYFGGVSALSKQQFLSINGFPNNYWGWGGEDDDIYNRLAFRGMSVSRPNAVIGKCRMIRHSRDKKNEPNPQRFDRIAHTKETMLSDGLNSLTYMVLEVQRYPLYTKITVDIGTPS
# Experimental: as §2
# (§3) Reaction products were quantified by Dowex-1 chromatography. Assays with hen egg Ovalbumin (Sigma), asialo-fetuin (Sigma), and asialo-agalacto-fetuin (Sigma, treated with bgalactosidase) were performed with the standard reaction mixture modified to contain […] UDP-Gal, 54 mM NaCl, and 0.5 mg Ovalbumin. The transfer of Gal was evaluated after precipitation by filtration through Whatman GF/C glass fiber filters.
# β4Gal-T3 = biological target: T3, β4Gal-T3 (Homo sapiens, UniProt O60512); assay: β4Gal-T3 galactosyltransferase activity assay (soluble enzyme, Sf9 media)
# T3 construct: media from Sf9 cells expressing secreted forms of either β4Gal-T2 or -T3 were used as enzyme sources; secretion signal of vector pAcGP67 (gp67 leader; own knowledge of the vector) (N); made in house; host or cells: Sf9 cells, baculovirus; unpurified culture supernatant
# Experimental: as §1, with “An expression construct designed to encode amino acid residues 31-372 of β4Gal-T2 was prepared by RT-PCR with mRNA from Colo205 cell line, using the primer pair EBER100FOR (5′-[…]; SEQ ID NO: 9) and EBER114 (5′-[…]; SEQ ID NO: 10) with BamH1 restriction sites (FIG. 2). The PCR” for “The PCR”
# as §2, §3
# [1] = substrate concentration 3 mM, media of infected Sf9 cells, background subtracted
# [2] = substrate concentration 1 mM, media of infected Sf9 cells, background subtracted
# [3] = substrate concentration 9 mM, media of infected Sf9 cells, background subtracted
# T3 sequence (O60512 32-393 limits assumed): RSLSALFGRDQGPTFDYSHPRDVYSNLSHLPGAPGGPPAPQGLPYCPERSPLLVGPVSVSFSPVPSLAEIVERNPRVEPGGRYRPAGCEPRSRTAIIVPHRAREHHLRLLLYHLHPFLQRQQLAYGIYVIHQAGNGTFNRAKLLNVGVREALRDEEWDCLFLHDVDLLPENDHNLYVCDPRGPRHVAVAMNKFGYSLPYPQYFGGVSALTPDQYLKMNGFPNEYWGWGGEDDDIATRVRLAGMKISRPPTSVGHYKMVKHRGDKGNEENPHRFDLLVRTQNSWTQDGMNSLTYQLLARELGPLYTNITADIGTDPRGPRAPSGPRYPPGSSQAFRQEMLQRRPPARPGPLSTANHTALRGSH
Compound,β4Gal-T2 activity with acceptor substrate (β4Gal-T2; [1]),β4Gal-T2 activity with acceptor substrate (β4Gal-T2; [2]),β4Gal-T2 activity with acceptor substrate (β4Gal-T2; [3]),further results
CC(=O)N[C@H]1[C@H](Oc2ccc3c(C)cc(=O)oc3c2)O[C@H](CO)[C@H](O)[C@@H]1O [4-Me-lumb-β-D-GalNAc],0.0 nmol/min/mL,,,
Cc1cc(=O)oc2cc(O[C@@H]3O[C@H](CO)[C@H](O)[C@H](O)[C@H]3O)ccc12 [4-Me-lumb-β-D-Gal],0.0 nmol/min/mL,,,
CC(=O)N[C@H]1[C@H](Oc2ccc3c(C)cc(=O)oc3c2)O[C@H](CO)[C@@H](O)[C@@H]1O [4-Me-lumb-β-D-GlcNAc],0.6 nmol/min/mL,0.8 nmol/min/mL,0.4 nmol/min/mL,
CC(=O)N[C@H]1[C@@H](OCc2ccccc2)O[C@H](CO)[C@@H](O)[C@@H]1O [Bz-α-D-GlcNAc],1.1 nmol/min/mL,0.4 nmol/min/mL,1.7 nmol/min/mL,
CC(=O)N[C@H]1[C@H](OCc2ccccc2)O[C@H](CO)[C@@H](O)[C@@H]1O [Bz-β-D-GlcNAc],3.6 nmol/min/mL,6.8 nmol/min/mL,1.5 nmol/min/mL,"inhibition of β4Gal-T2 by high acceptor substrate concentrations (β4Gal-T2): inhibited at high concentrations; Km (β4Gal-T2; β4Gal-T2, read-out: apparent Km for acceptor substrate): 160 µM; β4Gal-T2 activity with acceptor substrate (β4Gal-T2; β-D-GlcNAc-1-Bz at 0.25 mM): 3.5 nmol/min/mL; Bovine milk β4Gal-T activity with acceptor substrate (Bovine milk β4Gal-T; β-D-GlcNAc-1-Bz at 0.625 mM): 3.4 nmol/min/µg; β4Gal-T3 activity with acceptor substrate (β4Gal-T3; β-D-GlcNAc-1-Bz at 2 mM): 3.9 nmol/min/mL"
CC(=O)N[C@H]1C(O)O[C@H](CO)[C@@H](O)[C@@H]1O (stereo partly drawn) [D-GlcNAc],3.2 nmol/min/mL,1.4 nmol/min/mL,4.8 nmol/min/mL,inhibition of β4Gal-T2 by high acceptor substrate concentrations (β4Gal-T2): inhibited at high concentrations
CC(=O)N[C@H]1[C@@H](OP(=O)(O)OP(=O)(O)OC[C@H]2O[C@@H](n3ccc(=O)[nH]c3=O)[C@H](O)[C@@H]2O)O[C@H](CO)[C@H](O)[C@@H]1O [UDP-GalNAc],,,,donor substrate utilisation by β4Gal-T2 (in words) (β4Gal-T2): did not utilise
CC(=O)N[C@H]1[C@@H](OP(=O)(O)OP(=O)(O)OC[C@H]2O[C@@H](n3ccc(=O)[nH]c3=O)[C@H](O)[C@@H]2O)O[C@H](CO)[C@@H](O)[C@@H]1O [UDP-GlcNAc],,,,donor substrate utilisation by β4Gal-T2 (in words) (β4Gal-T2): did not utilise
O=C[C@H](O)[C@@H](O)[C@H](O)[C@H](O)CO [glucose],,,,acceptor substrate of soluble β4Gal-T2 activity (in words) (β4Gal-T2): not an acceptor
CC(=O)N[C@H]1[C@@H](Oc2ccccc2[N+](=O)[O-])O[C@H](CO)[C@@H](O)[C@@H]1O [o-Nph-α-D-GlcNAc],0.8 nmol/min/mL,0.4 nmol/min/mL,1.5 nmol/min/mL,
CC(=O)N[C@H]1[C@H](Oc2ccccc2[N+](=O)[O-])O[C@H](CO)[C@H](O)[C@@H]1O [o-Nph-β-D-GalNAc],0.0 nmol/min/mL,,,
O=[N+]([O-])c1ccccc1O[C@@H]1O[C@H](CO)[C@H](O)[C@H](O)[C@H]1O [o-Nph-β-D-Gal],0.0 nmol/min/mL,,,
CC(=O)N[C@@H]1[C@@H](O)[C@H](O)[C@@H](CO)O[C@H]1Sc1ccc([N+](=O)[O-])cc1 [p-Nph-1-thio-β-D-GlcNAc],1.6 nmol/min/mL,1.2 nmol/min/mL,0.2 nmol/min/mL,
CC(=O)N[C@H]1[C@H](Oc2ccc([N+](=O)[O-])cc2)O[C@H](CO)[C@@H](O)[C@@H]1O [p-Nph-β-D-GlcNAc],2.3 nmol/min/mL,3.0 nmol/min/mL,0.9 nmol/min/mL,
COC1OC(COC2OC(CO)C(O)C(O)C2NC(C)=O)C(O)C(O)C1O [β-D-CLcNAc-(1-6)-α-D-Man-1-OMe],11.3 nmol/min/mL,8.5 nmol/min/mL,,
COC1O[C@H](CO)[C@H](O)[C@H](O[C@@H]2O[C@H](CO)[C@H](O)[C@H](O)[C@H]2NC(C)=O)[C@H]1O (stereo partly drawn) [β-D-GlcNAc-(1-3)-β-D-Gal-1-OMe],7.7 nmol/min/mL,5.8 nmol/min/mL,,
CC(=O)N[C@H]1[C@H](OCc2ccccc2)O[C@H](CO)[C@H](O)[C@@H]1O [βGalNAc-benzyl],,,,acceptor substrate of soluble β4Gal-T2 activity (in words) (β4Gal-T2): not
*-D-GalNAc-1-(FAPSNYPAL) (not fully specified) [GalNAc-glycopeptide acceptor substrate],,,,β4Gal-T2 activity with acceptor substrate (β4Gal-T2; glycopeptides at 0.1 mM): 0.0 nmol/min/mL; Bovine milk β4Gal-T activity with acceptor substrate (Bovine milk β4Gal-T; glycopeptides at 0.1 mM): 0.0 nmol/min/µg; β4Gal-T3 activity with acceptor substrate (β4Gal-T3; glycopeptides at 0.1 mM): 0.0 nmol/min/mL
"Asialo-Fetuin: glycoprotein acceptor, asialo-fetuin (Sigma)",,,,β4Gal-T2 activity with acceptor substrate (β4Gal-T2; glycoproteins at 10 mg/ml): 0.2 nmol/min/mL; Bovine milk β4Gal-T activity with acceptor substrate (Bovine milk β4Gal-T; glycoproteins at 10 mg/ml): 0.1 nmol/min/µg; β4Gal-T3 activity with acceptor substrate (β4Gal-T3; glycoproteins at 10 mg/ml): 0.0 nmol/min/mL
Asialo-agalacto-Fetuin: glycoprotein acceptor; asialo-fetuin (Sigma) treated with bgalactosidase,,,,β4Gal-T2 activity with acceptor substrate (β4Gal-T2; glycoproteins at 10 mg/ml): 2.8 nmol/min/mL; Bovine milk β4Gal-T activity with acceptor substrate (Bovine milk β4Gal-T; glycoproteins at 10 mg/ml): 0.8 nmol/min/µg; β4Gal-T3 activity with acceptor substrate (β4Gal-T3; glycoproteins at 10 mg/ml): 0.7 nmol/min/mL
Bz-2-(2-β-D-GlcNAc)-α-D-GlcNAc,2.6 nmol/min/mL,9.9 nmol/min/mL,1.3 nmol/min/mL,
Bz-*-D-GalNAc,0.0 nmol/min/mL,,,
Lc3Cer,,,,acceptor substrate of soluble β4Gal-T2 activity (in words) (β4Gal-T2): utilised
α-lactalbumin,,,,"effect of α-lactalbumin on activity with GlcNAc (β4Gal-T2; β4Gal-T2, FIG. 4B): inhibited; concentration of α-lactalbumin to achieve maximum activity with Glc (β4Gal-T2; β4Gal-T2, glucose as acceptor): 0.4 mg/mL; effect of α-lactalbumin on activity with GlcNAc (Bovine milk β4Gal-T; bovine milk enzyme, FIG. 4B): inhibited; concentration of α-lactalbumin to achieve maximum activity with Glc (Bovine milk β4Gal-T; bovine milk enzyme, glucose as acceptor): 0.1 mg/mL"
"β-D-GlcNAC-1-(FAPGSYPAL) (also: O-linked β-D-GlcNAc, site not given here) [synthetic O-linked βGlcNAc-glycopeptide]",,,,β4Gal-T2 activity with acceptor substrate (β4Gal-T2; glycopeptides at 0.1 mM): 1.3 nmol/min/mL; β4Gal-T3 activity with acceptor substrate (β4Gal-T3; glycopeptides at 0.1 mM): 0.9 nmol/min/mL
